From paper PMC10900488, “Synthesis and Evaluation of (Bis)benzyltetrahydroisoquinoline Alkaloids as Antiparasitic Agents” (JACS Au, 2024)
Read-outs that look alike come from different tables or passages of the source.

Experiments:
mNG::RAD51 promastigotes = assay: mNG::RAD51 nuclear foci studies; type: cell-based, Leishmania (L.) mexicana; details: 25 μg mL-1, from 2 h posttreatment
From the text: DSBs often lead to cytotoxicity, which could be an explanation for the observed compound activity.[44]−[46]Leishmania employ the RAD51 DNA recombinase protein as part of its DNA repair machinery to fix naturally occurring nuclear DSBs via homologous recombination.[47]−[50] Using a CRISPR/Cas9 gene editing strategy,[51] we generated a genetically modified cell line with mNeonGreen tagged RAD51. This would allow observation of fluorescent RAD51 protein recruitment to foci in the nucleus corresponding to DSB accumulation, as has been shown in T. brucei.[52],[53] Phleomycin was used as a positive control to induce DSBs,[54] which led to the expected observation of accumulation of RAD51 as green dots in the nucleus in 80% of cells from as early as 2 h posttreatment (Figure 2D). […] We can therefore conclude that the BI compounds tested are unlikely to act via DSBs (albeit this methodology is sensitive only to DSBs in nuclear DNA), and another mechanism of cell cycle disruption is responsible for the breakdown in the healthy cell cycle.
(§1) NCTC cells (6 × 10^4/well) were added to a 96-well plate. Treatments of the cells with selected compounds (serially diluted 1.5 to 200 μM) was performed in a humidified incubator for 96 h at 37 °C and with 5% CO2.
(§2) The MTT colorimetric method was used to determine the 50% cytotoxic concentration (CC50) and the selectivity index (CC50 against NCTC cells/IC50 against amastigotes).15 […]
[…] […] Statistical significance was derived from a two-tailed T-test.
The Graph Pad Prism 5 software was used to perform sigmoid dose-response curves for the determination of […]
(§3) […] At 6 h and 24 h post-treatment, a 1 mL aliquot was taken for imaging. The cell cycle experiment was preformed twice independently.
(§4) Generation of mNG::RAD51 tagged cell line
(§5) The single-stranded DNA-binding protein RAD51, associated with DNA Repair, LmxM.28.0550 was tagged with endogenous fluorescent protein mNeonGreen (mNG) at the N-terminus. […]
Primers for constructs and sgRNA were designed using LeishGEdit (http://www.leishGEdit.net). […]

T. cruzi amastigotes = assay: Antiamastigote assay (T. cruzi), ex vivo intracellular model using mice macrophages, microscopy; type: cell-based, Trypanosoma (T.) cruzi; details: Trypanosoma cruzi, Peritoneal macrophage, 48 h, ± SD, read-out: T. cruzi IC50 amastigotes
Experimental: (§6) T. cruzi also assumes several cell morphologies during its lifecycle, which differ between the insect vector and mammalian host. In the latter environment, the parasite transitions between extracellular bloodstream trypomastigotes and intracellular amastigotes; both forms are clinically relevant, particularly during the acute stage of Chagas disease.[34] In this work, antitrypanosomal activity was tested against both the amastigote form (evaluated microscopically using an ex vivo intracellular model using mice macrophages) and the trypomastigote form (using the resazurin in vitro assay).[33],[35] […] In silico predictions of pharmacokinetic profiles were carried out using the SwissADME webtool (see the Supporting Information for details).[36] […]
(§7) […] Cultivation was performed in 2% fetal calf serum supplemented RPMI-1640 medium.
(§8) The trypomastigotes were maintained in a humidified incubator at 37 °C and with 5% CO2. […]
(§9) Peritoneal macrophages were obtained via washing the peritoneal cavity of BALB/c mice with 10% foetal calf serum supplemented RPMI-1640 medium (pH 7.2). The macrophages were maintained in a humidified incubator at 37 °C and with 5% CO2.
(§10) Biological activity assays […]
Peritoneal macrophages (1 × 10^5 cells/well) obtained from the peritoneal cavity of BALB/C mice were added to 16-well chambers (NUNC, Thermo Fischer Scientific). The cells were infected with trypomastigotes (10:1 parasites/macrophage) for 2 h. Then treatment of the infected macrophages with selected compounds (serially diluted 1.2 to 100 μM) was performed in a humidified incubator for 48 h at 37 °C and with 5% CO2. The treated cells were fixed on slides using methanol, stained with Giemsa and observed under a light microscope (EVOS M5000, Thermo, USA) with digital image equipment. The infection index was used in order to determine the half inhibitory concentration (IC50) (no. infected macrophages × no. amastigotes / total no.

[1] = tested on: L. infantum promastigotes; assay: Antipromastigote assay (L. infantum), MTT colorimetric; type: cell-based, Leishmania (L.) infantum; details: Leishmania infantum; ± SD; MTT, 48 h; read-out: L. infantum IC50 promastigotes
Experimental: (§11) Table 1 depicts the antileishmanial (L. infantum) activity evaluation performed against both the amastigote form (evaluated microscopically using an ex vivo intracellular model of mice macrophages) and the promastigote one (using an MTT colorimetric method).[32],[33] The cytotoxicity was evaluated against NCTC cells using an MTT colorimetric method and the selectivity index was determined using the ratio between the CC50 values (NCTC cells) and the IC50 values (amastigotes).[32] […] With respect to the substituents on the C ring, larger, hydrophobic groups conferred greater bioactivity (e.g., 9b–d), whereas small, hydrophilic groups such as a hydroxyl group afford modest to poor bioactivity.
(§12) Leishmania (L.) infantum (MHOM/BR/1972/LD) amastigotes were obtained from golden hamsters (Mesocricetus auratus) spleens following 60-70 days of infection via differential centrifugation. The Stauber method was used to determine the number of parasites.12 […]
Biological activity assays
Antipromastigote Assay (L. infantum)
L. infantum promastigotes (1 × 10^6 cells/well) were added to a 96-well plates. Treatment of the cells with selected compounds (serially diluted 0.14 to 200 μM) was performed in M199 medium supplemented with 0.25% hemin and 10% fetal bovine serum for 48 h at 24 °C. The MTT colorimetric assay was used to determine the activity (IC50) of the compounds. Miltefosine was used as a standard drug and untreated promastigotes were used as a negative control. The half inhibitory concentration (IC50) was determined from a sigmoidal regression of the concentration-response curves generated in GraphPadPrism7. […]

L. infantum amastigotes = assay: Antiamastigote assay (L. infantum), ex vivo intracellular model of mice macrophages, microscopy; type: cell-based, Leishmania (L.) infantum; details: 96 h, ± SD, intracellular, peritoneal macrophages, read-out: L. infantum IC50 amastigotes
Experimental: as §11, §12, §9, §10
Antiamastigote Assay (L. infantum)
Peritoneal macrophages (1 × 10^5/well) were added to a 16-well slide chambers (NUNC) and incubated with 5% CO2 at 37 °C. The cells were subsequently infected with L. infantum amastigotes (10:1 amastigotes/macrophage) for 24 h. Treatment of the cells with selected compounds (serially diluted 1.2 to 150 μM) was performed in a humidified incubator for 96 h at 37 °C and with 5% CO2. Untreated cells were used as a negative control and miltefosine was used as a standard drug. The treated cells were fixed on slides with methanol, stained with Giemsa and observed under a light microscope.13 The infection index was used in order to determine the half inhibitory concentration (IC50) (no. infected macrophages × no. amastigotes / total no. […]

[2] = Mammalian toxicity, MTT colorimetric; type: cell-based, murine; details: mouse
Experimental: as §11, with “bioactivity. […]” for “bioactivity.”
Murine conjunctive fibroblasts NCTC clone 929 (ATCC) were maintained in 10% foetal calf serum supplemented RPMI-1640 medium (pH 7.2) at 37 °C in a humidified incubator with 5% CO2. […]
as §10, §1, §2, §3, §4, §5
Primers for constructs and sgRNA were designed using LeishGEdit (http://www.leishGEdit.net).
PCR was at 94 °C for 5 min, followed by 35 cycles at 94 °C (15 sec), 65 °C (15 sec), 72 °C (2 min) then finally 72 °C (1 min).
PCR was at 94 °C for 30 sec, followed by 30 cycles at 94 °C (30 sec), 60 °C (30 sec), 72 °C (30 sec) then finally 72 °C (2 min). […] Combined PCR products were precipitated for 20 min with 10 μL 3M sodium acetate and 300 μL EtOH, pelleted at 14000 min-1 30 min, washed once with 70% EtOH, re-pelleted and resuspended in […]
Promastigotes (1 × 10^7 cells) were combined with PCR products and transfected using the Amaxa Nucleofector II.17 Electroporation was performed using 2 mm cuvettes on the X-100 program, followed by immediate suspension in pre-warmed M199 medium. Successful transfectants were selected with 20 μg mL-1 Puromycin 15 h after transfection, taking 4 days to reach stable growth in culture. mNG::RAD51 nuclear foci studies mNG::RAD51 promastigotes (5 × 10^6 cells mL-1) in 7 mL of M199 medium were treated with 7 μL o f compound (S)-9a or (S)-9b dissolved in DMSO giving a final concentration of 50 μM. Phleomycin was used as a positive control at a final concentration of 25 μg mL-1. At T = 0, 15, 30, 60 min, and 2, 6, 24 h post-treatment a 0.8 mL aliquot was taken for imaging.

T. cruzi trypomastigotes = assay: Antitrypomastigote assay (T. cruzi), resazurin; type: cell-based, Trypanosoma (T.) cruzi; details: 24 h, ± SD, resazurin, read-out: T. cruzi IC50 trypomastigotes
Experimental: as §6, §7, §8, §10
The half inhibitory concentration (IC50) was determined from a sigmoidal regression of the concentration-response curves generated in GraphPadPrism7. […]
Treatment of the cells with selected compounds (serially diluted 1.2 to 150 μM) was performed in a humidified incubator in RPMI 1640 medium for 24 h at 37 °C and with 5% CO2. Resazurin (0.011% in PBS) was added subsequently to verify parasite viability. Benznidazole was used as a standard drug. The optical density was determined at 570 nm using the FilterMax F5 (Molecular Devices). […]

[3] = Leishmania infantum, Peritoneal macrophage

Compound | IC50 (T. cruzi amastigotes) [µM] | IC50 [1] [µM] | IC50 (L. infantum amastigotes; [3]) [µM] | IC50 (T. cruzi trypomastigotes; Trypanosoma cruzi) [µM] | IC50 (L. infantum amastigotes) [µM] | IC50 (T. cruzi trypomastigotes) [µM] | cells with accumulation of RAD51 in the nucleus (mNG::RAD51 promastigotes) [%] | CC50 at 96 h [2] [µM]
Phleomycin [reference compound] | – | – | – | – | – | – | 80 | –
COc1cc2c(cc1OC)[C@@H](Cc1ccc(Oc3cc(C[C@H]4c5cc(OC)c(OC)cc5CCN4C)ccc3O)cc1)N(C)CC2 [(R,S)-13] | 2.8 ± 0.6 | 3.2 ± 1.7 | > 150 | 10.1 ± 3.9 | – | – | – | 13.3 ± 1.6
COc1cc2c(cc1OC)[C@@H](Cc1ccc(Oc3cc(C[C@@H]4c5cc(OC)c(OC)cc5CCN4C)ccc3O)cc1)N(C)CC2 [(R,R)-13, (–)-dauricine] | > 100 | 3.2 ± 1.1 | 3.7 ± 0.6 | 3.7 ± 2.9 | – | – | – | 7 ± 1
COc1cc2c(cc1OC)[C@@H](Cc1ccc(O)c(Oc3ccc(C[C@H]4c5cc(OC)c(OC)cc5CCN4C)cc3)c1)N(C)CC2 [(S,R)-13] | 4.4 ± 0.4 | 5.7 ± 1.3 | 3.6 ± 0.3 | 4.2 ± 4.8 | – | – | – | 15.6 ± 1.6
COc1ccc(COc2ccc(C[C@H]3c4cc(OC)c(OC)cc4CCN3C)cc2Oc2ccc(C[C@H]3c4cc(OC)c(OC)cc4CCN3C)cc2)cc1 [(S,S)-12] | > 100 | 1.1 ± 0.5 | > 150 | 5.6 ± 2.1 | – | – | – | 20.8 ± 5.4
COc1ccc(COc2ccc(C[C@@H]3c4cc(OC)c(OC)cc4CCN3C)cc2Oc2ccc(C[C@@H]3c4cc(OC)c(OC)cc4CCN3C)cc2)cc1 [(R,R)-12] | > 100 | 1.1 ± 0.5 | > 150 | 7.3 ± 1.5 | – | – | – | 13.9 ± 1.6

Now from value to compound, other results behind:

IC50 (T. cruzi amastigotes) [µM] | IC50 [1] [µM] | IC50 (L. infantum amastigotes; [3]) [µM] | IC50 (T. cruzi trypomastigotes; Trypanosoma cruzi) [µM] | IC50 (L. infantum amastigotes) [µM] | IC50 (T. cruzi trypomastigotes) [µM] | Compound | cells with accumulation of RAD51 in the nucleus (mNG::RAD51 promastigotes) [%] | CC50 at 96 h [2] [µM]
1.5 ± 0.2 | 0.7 ± 0.1 | > 150 | 7.2 ± 0.6 | – | – | COc1cc2c(cc1OC)[C@@H](Cc1ccc(Oc3cc(C[C@@H]4c5cc(OC)c(OC)cc5CCN4C)ccc3OC)cc1)N(C)CC2 [(R,R)-11, (−)-O-methyldauricine] | – | 11.4 ± 4.8
> 100 | 4.8 ± 0.8 | > 150 | 107 ± 1.8 | – | – | COc1cc2c(cc1OC)[C@@H](Cc1ccc(O)cc1)N(C)CC2 [(R)-10b, (–)-armepavine] | – | > 200
31.8 ± 4.3 | 15.5 ± 5.8 | 23.4 ± 3.4 | 28.3 ± 11.7 | – | – | COc1cc2c(cc1OC)[C@@H](Cc1ccc(Br)cc1)N(C)CC2 [(R)-9a] | – | 86.8 ± 2.9
6.2 ± 5.9 | 1.1 ± 0.5 | < 10 | 16.5 ± 6.1 | 9.4 ± 0.5 | – | COc1cc2c(cc1OC)[C@@H](Cc1ccc(OCc3ccccc3)cc1)N(C)CC2 [(R)-9d] | – | 28.1 ± 0.5
> 100 | 3.5 ± 1.2 | > 150 | < 10 | – | 8.5 ± 3.1 | COc1ccc(COc2ccc(C[C@@H]3c4cc(OC)c(OC)cc4CCN3C)cc2Br)cc1 [(R)-9c] | – | 13.4 ± 1.3
